Data from US20090088329A1, “MULTICOMPONENT PROTEIN MICROARRAYS” (priority 2002, published 2009).
Where a name gives a salt, the structure may show the parent alone.

Legend:
[1] = target: urease (Canavalia ensiformis, UniProt P07374); settings: cited from earlier work
[2] = target: T1, Urease (type IX from Jack Beans) (Canavalia ensiformis, UniProt P07374); experiment: biochemical; assay type: biochemical; settings: for Ki: 20 mM urea; for Km / kcat: Urease/FD; for kcat: pH 5.1
T1 construct: purchased Sigma (St. Louis, Mo.) type IX
T1 sequence (P07374 whole entry, looked up): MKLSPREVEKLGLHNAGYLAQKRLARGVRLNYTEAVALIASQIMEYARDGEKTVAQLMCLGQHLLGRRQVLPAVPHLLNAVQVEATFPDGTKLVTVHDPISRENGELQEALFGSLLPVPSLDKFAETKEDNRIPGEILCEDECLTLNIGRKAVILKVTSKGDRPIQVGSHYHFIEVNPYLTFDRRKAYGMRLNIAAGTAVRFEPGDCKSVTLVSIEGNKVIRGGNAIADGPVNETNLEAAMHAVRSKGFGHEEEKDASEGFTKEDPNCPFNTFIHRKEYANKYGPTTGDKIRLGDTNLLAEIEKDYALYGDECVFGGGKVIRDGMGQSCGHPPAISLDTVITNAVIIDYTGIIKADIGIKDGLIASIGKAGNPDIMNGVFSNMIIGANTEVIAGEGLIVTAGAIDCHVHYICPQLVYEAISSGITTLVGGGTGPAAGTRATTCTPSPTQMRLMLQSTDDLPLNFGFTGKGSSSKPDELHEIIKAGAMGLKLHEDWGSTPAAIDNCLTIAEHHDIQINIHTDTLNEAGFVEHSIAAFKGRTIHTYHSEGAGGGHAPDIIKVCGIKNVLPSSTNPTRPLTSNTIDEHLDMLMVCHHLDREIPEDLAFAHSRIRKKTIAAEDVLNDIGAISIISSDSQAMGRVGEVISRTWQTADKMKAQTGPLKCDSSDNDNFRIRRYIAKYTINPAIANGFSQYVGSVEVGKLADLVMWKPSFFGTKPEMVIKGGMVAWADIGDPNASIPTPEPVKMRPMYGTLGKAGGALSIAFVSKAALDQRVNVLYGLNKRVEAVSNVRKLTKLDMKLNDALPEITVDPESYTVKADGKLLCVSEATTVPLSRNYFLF
Procedure: Preparation of Spotting Solutions: GOx and HRP were dissolved at concentration of 0.4 mg.mL^−1 (250 units.mg^−1) and 0.01 mg.mL^−1 (1000 units.mg^−1), respectively, in 50 mM sodium phosphate buffer, pH 7.4 to form the protein stock solutions. The Amplex Red reagent was made up to a stock concentration of 10 mM. Urease and fluorescein dextran were dissolved at concentrations of 2 mg.mL^−1 (35,400 units.g^−1) and 25 μM, respectively, in 50 mM Tris buffer containing 50 mM NaCl, pH 8 to form their respective stock solutions. GOx/HRP assay samples were prepared to a total volume of 50 μL by mixing 3 μL of each of the GOx and HRP stock solutions, 39 μL of sodium phosphate buffer and 5 μL of the Amplex Red dye solution. Negative and blank control samples were prepared in the same way except that phosphate buffer replaced the missing reagent. Positive control samples contained GOx and HRP as well as 15 μL of 100 μM D-glucose (in buffer) and only 24 μL of buffer. […] Similarly, the blank and positive control samples replaced the missing reagents with Tris buffer while the enzyme selectivity control was obtained by replacing urease with AChE (0.01 mg.mL^−1) in Tris buffer.
Enzyme Assays All enzyme assays and inhibition studies were performed in 96 well plates using a TECAN Safire absorbance/fluorescence platereader operated in fluorescence mode, or on the microarray using time-dependent fluorescence intensity measurements. The enzymatic activity of free and entrapped GOx in 96 well plates was measured by adding 50 μL of a solution containing varying concentrations of glucose to the microtiter well and monitoring of the fluorescence emission at 590 nm for 20 minutes (in solution) or 45 minutes (for entrapped GOx) with excitation at 573 nm. For microarrays, 20 μL of a glucose solution was added to the top of the array, left for 20 seconds and then removed by gently blowing air over the surface, followed by monitoring of fluorescence emission over time. […] Images were acquired before the addition of glucose and then every 30 seconds for 30 minutes after the introduction of glucose using a 30 second integration time per image. For urease, activity and inhibition were measured by adding 100 μL of a solution containing a constant amount of urea (20 mM) in the presence of varying amounts of thiourea (0-100 mM) to the microtiter well and the fluorescence emission of the fluorescein dextran was monitored at 520 nm for 15 minutes (solution) or 45 minutes (entrapped). Microarrays containing urease and fluorescein dextran were first imaged after washing with distilled deionized water (ddH2O, pH 5.1) to provide a constant baseline intensity response. Following this, 20 μL of a urea/thiourea solution was added to the top of the array, which was then covered with a coverslip to minimize solvent evaporation. The emission intensity of fluorescein dextran was measured every 20 seconds for 10 minutes using a 10 second integration time per image following the addition of the urea solution to the array. All samples were tested within 24 hours of being prepared.
For both enzymes studied the initial rate of change in fluorescence intensity was converted to a change in product concentration with time using calibration curves relating the emission intensity of fluorescein to the concentration of ammonium carbonate (for urease) or hydrogen peroxide (for GOx). The Michaelis constants (KM) and catalytic rate constants (kcat) for the enzymes were calculated by generating either double reciprocal (Lineweaver-Burk) plots relating (initial rate of product formation)^−1 to (substrate concentration)^−1 or Hanes-Wolff plots, and fitting these to a linear model. Inhibition constants (KI) for urease were calculated by assessing the changes in the initial rate values for the enzyme in the presence of varying levels of inhibitor, according to the equation: […]

[3] = target: rhodamine-labelled calmodulin (CaM)/rhodamine-labelled melittin complex (Homo sapiens, UniProt P0DP23); experiment: Calmodulin-melittin sol-gel microarray, rhodamine self-quenching fluorescence; assay type: binding; settings: for effect on CaM-melittin complex / fluorescence intensity: addition to array, 20:1 molar ratio to CaM for guanidine hydrochloride
Excerpt: A third system involving protein-peptide interactions consisted of rhodamine-labelled calmodulin (CaM) and rhodamine-labelled mellitin, and was based on a slightly different fluorescence-based screening method utilizing these same biomolecules entrapped in sol-gel derived monoliths. In the absence of antagonists or denaturants (such as guanidine hydrochloride), these two species exist in a complex that brings the two rhodamine labels into close proximity, resulting in self-quenching and thus a low fluorescence signal.
Another example of a sol-gel derived microarray involving a protein-peptide interaction has been developed consisting of rhodamine-labelled calmodulin (CaM) and rhodamine-labelled melittin co-entrapped in a sodium silicate derived sol-gel. In the absence of antagonists, these two species exist in a complex that brings the two rhodamine labels into close proximity, resulting in a self-quenching dimer and thus a low fluorescence signal.
Columns 1 & 5 contain the protein-protein interaction between CaM and Mellitin. Both of which are labelled with rhodamine. Columns 2 & 4 are blank and contain only buffer. Column 3 contains CaM—Rhodamine alone and acts as a positive control. Upon addition of GdHCl (2M) to the top of the array and imaging every 20 s, the CaM-Mel columns increased in fluorescence over 2-fold (Panel B), while the positive control increased slightly initially but reached a relatively low steady-state value quickly (see graph, FIG. 7)

[4] = entrapped enzyme in platereader

Sequence of urease (P07374 whole entry, looked up): as above

NC(N)=S [thiourea]
Ki ([1]; urease in solution, literature range, different pH values (5.5 to 8)): 48 to 85 mM | Ki ([2]; urease entrapped in bulk sodium silicate glass, platereader): 54 ± 2 mM | Ki ([2]; urease sol-gel microarray): 62 ± 7 mM

N=C(N)c1ccccc1 [benzamidine]
effect on CaM-melittin complex / fluorescence intensity [3]: no changes in intensity above that obtained for CaM alone

N=C(N)N [guanidine hydrochloride]
increase in fluorescence of CaM-Mel columns ([3]; GdHCl 2M added to top of array, imaging every 20 s): over 2 fold | effect on CaM-melittin complex / fluorescence intensity [3]: the complex was dissociated

NC(N)=O [urea]
Km ([1]; urease, literature): 2900 µM | Km [2, 4]: 2350 ± 30 µM | kcat [2, 4]: 1.33 ± 0.02 s⁻¹ | Km ([2]; sol-gel microarray): 1900 ± 100 µM | kcat ([2]; sol-gel microarray): 1.1 ± 0.1 s⁻¹ | Km ([2]; solution, platereader): 1300 ± 200 µM | kcat ([2]; solution, platereader): 78 ± 2 s⁻¹ | kcat of entrapped protein lower than in solution ([2]; urease, entrapped vs solution): up to 70 fold
